# PubChem BioAssay (NCI)
#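 96-well plates; 48 h exposure; 5 concentrations. Endpoints by linear interpolation between flanking doses. Not reached: highest tested concentration assigned. At the GI50, growth is halved. Definition used: TGI = concentration required for complete inhibition of growth.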
# Key:
# Assay in all cases: NCI anticancer screen, dose series, 48 h
# [1] = tested on: MDA-MB-231 breast
# [2] = tested on: MDA-MB-435
# [3] = tested on: A549 NSCLC
# [4] = tested on: NCI-H226 lung
# [5] = tested on: 786-0 renal
# [6] = tested on: OVCAR-4 ovarian
# [7] = tested on: PC-3 prostate
# [8] = tested on: EKVX NSCLC
# [9] = tested on: NCI/ADR-RES ovarian
# [10] = tested on: BT-549 breast
# [11] = tested on: UO-31 renal
# [12] = tested on: SNB-19 CNS
# [13] = tested on: SF-268 CNS
# [14] = tested on: SK-MEL-5 melanoma
# [15] = tested on: NCI-H460 lung
# [16] = tested on: OVCAR-8 ovarian
# [17] = tested on: NCI-H23 lung
# [18] = tested on: RPMI-8226 leukemia
# [19] = tested on: SNB-75 CNS
# [20] = tested on: HS 578T breast
# [21] = tested on: HCT-116 colon
# [22] = tested on: HOP-62 NSCLC
# [23] = tested on: OVCAR-5 ovarian
# [24] = tested on: SK-MEL-2 melanoma
# [25] = tested on: SK-OV-3 ovarian
# [26] = tested on: ACHN renal
# [27] = tested on: UACC-257 melanoma
# [28] = tested on: SR leukemia
# [29] = tested on: HOP-92 NSCLC
structure (smiles),measurement,setting,value
CCCCC#Cc1c(I)n(C2OC(CO[Si](C)(C)C(C)(C)C)C3OC(C)(C)OC32)c(=O)n(C(=O)c2ccccc2)c1=O (configuration not stated),GI50,[1],17.7 µM
same,TGI,[1],37.7 µM
same,GI50,[2],1.77 µM
same,TGI,[2],3.87 µM
same,GI50,[3],> 100 µM
same,TGI,[3],> 100 µM
same,GI50,[4],17.6 µM
same,TGI,[4],37.6 µM
same,GI50,[5],3.25 µM
same,TGI,[5],14.5 µM
same,GI50,[6],14 µM
same,TGI,[6],27.2 µM
same,GI50,[7],10.3 µM
same,TGI,[7],22.9 µM
same,GI50,[8],18.5 µM
same,TGI,[8],38.9 µM
same,GI50,[9],18.5 µM
same,TGI,[9],49.3 µM
same,GI50,[10],8.98 µM
same,TGI,[10],20.4 µM
same,GI50,[11],1.97 µM
same,TGI,[11],7.51 µM
same,GI50,[12],14.1 µM
same,TGI,[12],28.4 µM
same,GI50,[13],2.06 µM
same,TGI,[13],4.85 µM
same,GI50,[14],14.2 µM
same,TGI,[14],27.2 µM
same,GI50,[15],10.9 µM
same,TGI,[15],27.4 µM
same,GI50,[16],5.61 µM
same,TGI,[16],18.6 µM
same,GI50,[17],9.44 µM
same,TGI,[17],27.3 µM
same,GI50,[18],3.64 µM
same,TGI,[18],17.4 µM
same,GI50,[19],14.1 µM
same,TGI,[19],27.5 µM
same,GI50,[20],7.17 µM
same,TGI,[20],43.6 µM
same,GI50,[21],1.36 µM
same,TGI,[21],2.74 µM
same,GI50,[22],10.7 µM
same,TGI,[22],23 µM
same,GI50,[23],17.1 µM
same,TGI,[23],31.7 µM
same,GI50,[24],2.09 µM
same,TGI,[24],4.75 µM
same,GI50,[25],14.8 µM
same,TGI,[25],27.9 µM
same,GI50,[26],3 µM
same,TGI,[26],> 100 µM
same,GI50,[27],16.4 µM
same,TGI,[27],30.7 µM
same,GI50,[28],1.69 µM
same,TGI,[28],9.35 µM
same,GI50,[29],0.885 µM
